The values below come from ChEMBL document CHEMBL6087454, “Identification of Novel Organo-Se BTSA-Based Derivatives as Potent, Reversible, and Selective PPARγ Covalent Modulators for Antidiabetic Drug Discovery” (J Med Chem, 2025).

Series [1] concerns the target T1, Peroxisome proliferator-activated receptor gamma (Homo sapiens) (UniProt P37231).
T1 sequence (whole entry): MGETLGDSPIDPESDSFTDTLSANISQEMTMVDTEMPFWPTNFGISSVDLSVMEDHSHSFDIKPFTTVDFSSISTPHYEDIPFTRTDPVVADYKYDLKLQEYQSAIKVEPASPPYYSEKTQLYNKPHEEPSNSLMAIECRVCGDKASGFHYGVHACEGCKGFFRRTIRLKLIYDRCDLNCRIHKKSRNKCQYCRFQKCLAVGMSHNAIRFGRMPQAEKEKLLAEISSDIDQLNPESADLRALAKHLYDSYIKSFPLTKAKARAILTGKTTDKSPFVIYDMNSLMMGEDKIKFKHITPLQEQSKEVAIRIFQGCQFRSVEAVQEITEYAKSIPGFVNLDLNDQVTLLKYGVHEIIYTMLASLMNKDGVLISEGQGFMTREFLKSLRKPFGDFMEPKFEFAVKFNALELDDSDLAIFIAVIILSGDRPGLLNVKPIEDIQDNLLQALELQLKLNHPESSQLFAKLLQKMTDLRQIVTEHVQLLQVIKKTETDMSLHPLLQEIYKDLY
The series is described as follows: Covalent binding affinity to recombinant PPAR-gamma ligand binding domain (unknown origin) at Cys285 residue at 0.4 uM incubated for 30 mins by rhodamine-maleimide staining based SDS-PAGE analysis. The note with it: filed as partial agonist.

The nature of series [2]: Toxicity in male db/db mouse model assessed as effect on kidney morphology at 2.5 to 10 mg/kg/day, ip administered for 4 weeks. Format: organism-based. Conditions: in vivo, 672 h, dose 2.5-10 mg/kg/day.
Series [3] deals with T1, Peroxisome proliferator-activated receptor gamma (Homo sapiens). The series is described as follows: Partial agonist activity at recombinant GST-tagged human PPAR-gamma ligand binding domain (E235 to Y505 residues) extracted from Escherichia coli BL21 (DE3) cells by TR-FRET assay. Conditions: filed as partial agonist.
In series [4] the test system is Mus musculus. In words: Effect on cdk5 protein expression in male db/db mouse liver at 2.5 to 10 mg/kg/day, ip administered for 4 weeks by Western blotting analysis. Format: functional, organism-based. The note with it: dose 2.5-10 mg/kg/day. On the technique in general: A western blot detects proteins with antibodies after separation by electrophoresis.
The species named for a further series is Homo sapiens. The series is described as follows: Binding affinity to PPAR-beta (unknown origin) at 0.5 uM in presence of fluormone pan-PPAR green tracer by TR-FRET assay. For orientation: TR-FRET usually uses a lanthanide donor and a delayed reading to cut background.
In series [5] the test system is 3T3-L1. In words: Inhibition of adipogenesis in mouse 3T3-L1 cells assessed as downregulation of aP2 gene expression at 1 uM measured after 48 hrs by RT-qPCR analysis. Format: functional, cell-based. On the technique in general: Real-time PCR tracks product formation cycle by cycle.
Series [6] has as its system Mus musculus. In words: Antidiabetic activity in male db/db mouse model assessed as decrease in PDK4 protein abundance in liver at 2.5 to 10 mg/kg/day, ip administered for 4 weeks by Western blotting analysis. Conditions: dose 2.5-10 mg/kg/day. The class given is functional, organism-based.
Series [7] relates to Mus musculus. The series is described as follows: Antidiabetic activity in male db/db mouse model assessed as downregulation of PPARgamma gene expression in liver at 2.5 to 10 mg/kg/day, ip administered for 4 weeks by RT-qPCR analysis. Format: functional, organism-based. Conditions: dose 2.5-10 mg/kg/day.
For series [8], the system named is Mus musculus. The series is described as follows: Antidiabetic activity in male db/db mouse model assessed as increase in ANGPTL4 protein abundance in white adipose tissue at 2.5 to 10 mg/kg/day, ip administered for 4 weeks by Western blotting analysis. The note with it: dose 2.5-10 mg/kg/day. The class given is functional, organism-based.
Series [9] has as its system Mus musculus. In words: Antidiabetic activity in male db/db mouse model assessed as upregulation of adiponectin gene expression in liver at 2.5 to 10 mg/kg/day, ip administered for 4 weeks by RT-qPCR analysis. The class given is functional, organism-based. Conditions: dose 2.5-10 mg/kg/day.
Series [10] in a line: Toxicity in male db/db mouse model assessed as increase in white adipose tissue weight at 2.5 to 10 mg/kg/day, ip administered for 4 weeks. Format: organism-based. Conditions: in vivo, 672 h, dose 2.5-10 mg/kg/day.
Series [11] relates to Mus musculus. In words: Antidiabetic activity in male db/db mouse model assessed as downregulation of C/EBPalpha gene expression in liver at 2.5 to 10 mg/kg/day, ip administered for 4 weeks by RT-qPCR analysis. The note with it: dose 2.5-10 mg/kg/day. Format: functional, organism-based.
A short description of series [12]: Toxicity in male db/db mouse model assessed as effect on heart morphology at 2.5 to 10 mg/kg/day, ip administered for 4 weeks. Format: organism-based. The note with it: in vivo, 672 h, dose 2.5-10 mg/kg/day.
The test system of series [13] is 3T3-L1. In words: Inhibition of adipogenesis in mouse 3T3-L1 cells assessed as downregulation of FASN gene expression at 1 uM measured after 48 hrs by RT-qPCR analysis. Format: functional, cell-based.
Series [14] relates to Mus musculus. The series is described as follows: Antidiabetic activity in male db/db mouse model assessed as increase in Glut4 protein abundance in liver at 2.5 to 10 mg/kg/day, ip administered for 4 weeks by Western blotting analysis. Format: functional, organism-based. The note with it: dose 2.5-10 mg/kg/day.
Series [15] concerns Mus musculus. In words: Antidiabetic activity in male db/db mouse model assessed as downregulation of FASN gene expression in liver at 2.5 to 10 mg/kg/day, ip administered for 4 weeks by RT-qPCR analysis. The class given is functional, organism-based. The note with it: dose 2.5-10 mg/kg/day.
In series [16] the target is T2, Peroxisome proliferator-activated receptor alpha (Homo sapiens) (UniProt Q07869).
T2 sequence (whole entry): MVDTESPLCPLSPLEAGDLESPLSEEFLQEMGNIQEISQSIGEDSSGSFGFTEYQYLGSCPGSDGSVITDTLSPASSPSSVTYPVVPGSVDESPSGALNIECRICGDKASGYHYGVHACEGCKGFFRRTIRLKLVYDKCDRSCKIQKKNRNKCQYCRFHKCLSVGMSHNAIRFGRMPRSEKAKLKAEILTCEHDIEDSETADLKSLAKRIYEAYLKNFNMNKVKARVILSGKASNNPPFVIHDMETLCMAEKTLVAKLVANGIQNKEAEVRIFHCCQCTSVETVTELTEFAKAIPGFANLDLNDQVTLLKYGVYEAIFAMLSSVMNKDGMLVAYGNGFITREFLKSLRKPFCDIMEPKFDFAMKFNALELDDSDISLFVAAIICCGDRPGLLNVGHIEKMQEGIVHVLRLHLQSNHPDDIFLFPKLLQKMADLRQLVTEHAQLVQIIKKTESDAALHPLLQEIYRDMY
The series is described as follows: Binding affinity to PPAR-alpha (unknown origin) at 0.5 uM in presence of fluormone pan-PPAR green tracer by TR-FRET assay.

The nature of series [17]: Toxicity in male db/db mouse model assessed as increase in brown adipocytes size at 2.5 to 10 mg/kg/day, ip administered for 4 weeks by H and E staining based analysis. The class given is organism-based. The note with it: in vivo, 672 h, dose 2.5-10 mg/kg/day.
The test system of series [18] is Mus musculus. The series is described as follows: Antidiabetic activity in male db/db mouse model assessed as downregulation of C/EBPalpha gene expression in white adipose tissue at 2.5 to 10 mg/kg/day, ip administered for 4 weeks by RT-qPCR analysis. The class given is functional, organism-based. Conditions: dose 2.5-10 mg/kg/day.
The test system of series [19] is 3T3-L1. In words: Inhibition of adipogenesis in mouse 3T3-L1 cells assessed as downregulation of LPL gene expression at 1 uM measured after 48 hrs by RT-qPCR analysis. The class given is functional, cell-based.
Series [20] concerns Mus musculus. The series is described as follows: Antidiabetic activity in male db/db mouse model assessed as improvement in insulin tolerance at 2.5 to 10 mg/kg/day, ip preadministered for 4 weeks followed by glucose administration after 4 to 6 hrs of fasting and measured after 120 mins by intraperitoneal insulin tolerance test. The class given is functional, organism-based. The note with it: dose 2.5-10 mg/kg/day.

In series [21] the test system is 3T3-L1. In words: Insulin sensitizing activity in mouse 3T3-L1 cells assessed as upregulation of adiponectin gene expression at 1 uM measured after 48 hrs by RT-qPCR analysis. Format: functional, cell-based.
Series [22] can be described thus: Toxicity in male db/db mouse model assessed as effect on kidney weight at 2.5 to 10 mg/kg/day, ip administered for 4 weeks. The class given is organism-based. The note with it: in vivo, 672 h, dose 2.5-10 mg/kg/day.

The source made the active and inactive calls. The rule behind the calls is not given here.

Consider `Cc1ccc(S(=O)(=O)Oc2ccc(S3(=O)=N[Se]c4cc(OS(=O)(=O)c5ccc(C)cc5)ccc43)cc2)cc1` (stereo not drawn), for which the outcome (in series [1]; in series [3]; with Mus musculus [6]; with Mus musculus [7]; in the series on Mus musculus [8]; in the series on Mus musculus [9]) was Active. In addition, the result in the series with Mus musculus [11], in the series on Mus musculus [14], in the series with Mus musculus [15], in the series with Mus musculus [18], in the series on Mus musculus [20] and in the series on 3T3-L1 [21] was Active. Moreover, the Activity entry in series [2], in series [10], in [12], in series [17] and in [22] was “Non-toxic” each time. Further, the result (in the series with Mus musculus [4]; in the series filed under Homo sapiens; in series [16]) was inactive. Besides, the inhibition entry with 3T3-L1 [5], in the series on 3T3-L1 [13] and in the series with 3T3-L1 [19] was “Active” throughout.
